Measurements as given in ChEMBL document CHEMBL1136687, “Novel 5-aryl-1,3-dihydro-indole-2-thiones. potent, orally active progesterone receptor agonists” (Bioorg Med Chem Lett, 2003).

Experiments:
Progesterone receptor [1] = target: T1, Progesterone receptor (Homo sapiens, UniProt P06401); experiment: (§1) Effective concentration of progesterone receptor agonist induction of alkaline phosphatase activity in human T47D breast carcinoma cells; type: functional, cell-based
T1 sequence (P06401 whole entry): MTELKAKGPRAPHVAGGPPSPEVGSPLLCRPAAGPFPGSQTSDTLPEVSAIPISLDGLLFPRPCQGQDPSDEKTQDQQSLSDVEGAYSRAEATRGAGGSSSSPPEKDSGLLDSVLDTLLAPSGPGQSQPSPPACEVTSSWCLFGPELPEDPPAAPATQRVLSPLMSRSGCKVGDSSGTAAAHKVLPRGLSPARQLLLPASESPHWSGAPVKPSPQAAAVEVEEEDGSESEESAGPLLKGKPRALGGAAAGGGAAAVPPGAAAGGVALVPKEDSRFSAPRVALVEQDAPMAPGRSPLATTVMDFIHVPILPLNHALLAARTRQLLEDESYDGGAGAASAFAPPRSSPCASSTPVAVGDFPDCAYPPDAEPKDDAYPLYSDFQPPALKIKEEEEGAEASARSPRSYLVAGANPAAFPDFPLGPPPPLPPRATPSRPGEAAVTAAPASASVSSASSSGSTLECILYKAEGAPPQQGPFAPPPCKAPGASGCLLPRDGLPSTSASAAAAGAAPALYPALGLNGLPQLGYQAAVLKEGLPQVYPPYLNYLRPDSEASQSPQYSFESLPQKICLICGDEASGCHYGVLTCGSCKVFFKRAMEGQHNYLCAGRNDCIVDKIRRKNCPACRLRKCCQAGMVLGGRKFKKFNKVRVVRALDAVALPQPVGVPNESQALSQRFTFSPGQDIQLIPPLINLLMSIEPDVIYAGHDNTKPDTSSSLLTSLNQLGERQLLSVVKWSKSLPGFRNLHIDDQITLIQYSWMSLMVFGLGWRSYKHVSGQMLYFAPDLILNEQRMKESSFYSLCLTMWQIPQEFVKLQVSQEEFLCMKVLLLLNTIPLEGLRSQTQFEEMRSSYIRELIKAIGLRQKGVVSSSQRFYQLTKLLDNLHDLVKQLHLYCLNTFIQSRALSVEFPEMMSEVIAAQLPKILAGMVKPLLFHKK

[2] = target: T2, Progesterone receptor (Rattus norvegicus) (UniProt Q63449); experiment: Effective progestational dose on oral administration in rat decidualization model; type: functional, organism-based
T2 sequence (whole entry): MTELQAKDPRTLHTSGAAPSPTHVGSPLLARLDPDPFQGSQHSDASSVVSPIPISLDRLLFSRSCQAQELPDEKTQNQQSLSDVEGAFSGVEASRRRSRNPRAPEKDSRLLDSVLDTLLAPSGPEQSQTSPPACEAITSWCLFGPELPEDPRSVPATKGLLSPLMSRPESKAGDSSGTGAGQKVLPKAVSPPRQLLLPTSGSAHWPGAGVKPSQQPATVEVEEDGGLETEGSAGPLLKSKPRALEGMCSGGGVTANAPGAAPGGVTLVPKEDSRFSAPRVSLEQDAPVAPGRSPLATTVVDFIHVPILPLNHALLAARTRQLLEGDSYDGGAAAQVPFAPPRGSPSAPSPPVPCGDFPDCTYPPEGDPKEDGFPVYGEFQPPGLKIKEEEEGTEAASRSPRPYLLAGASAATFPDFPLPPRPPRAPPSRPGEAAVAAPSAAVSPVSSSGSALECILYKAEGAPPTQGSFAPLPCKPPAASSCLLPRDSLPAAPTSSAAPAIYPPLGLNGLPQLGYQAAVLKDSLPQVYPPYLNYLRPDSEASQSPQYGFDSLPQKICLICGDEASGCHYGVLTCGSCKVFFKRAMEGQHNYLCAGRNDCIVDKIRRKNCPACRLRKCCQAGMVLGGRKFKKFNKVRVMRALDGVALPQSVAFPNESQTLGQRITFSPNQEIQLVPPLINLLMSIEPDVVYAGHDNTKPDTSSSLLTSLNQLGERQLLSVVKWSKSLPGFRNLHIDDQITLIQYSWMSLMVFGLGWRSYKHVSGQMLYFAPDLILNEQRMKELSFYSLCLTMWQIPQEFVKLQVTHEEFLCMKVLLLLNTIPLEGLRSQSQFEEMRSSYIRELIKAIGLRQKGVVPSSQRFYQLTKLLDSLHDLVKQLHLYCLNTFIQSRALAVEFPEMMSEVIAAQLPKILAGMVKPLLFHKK

Progesterone receptor [3] = target: T3, Progesterone receptor (Rattus norvegicus, UniProt Q63449); experiment: Inhibitory progestational activity on oral administration in uterine C3 model; type: functional, organism-based
T3 sequence (Q63449 whole entry): T2 sequence (whole entry)

Progesterone receptor [4] = target: T1, Progesterone receptor; experiment: as §1; type: functional, cell-based; remark: listed apart in the source
Glucocorticoid receptor [5] = target: T4, Glucocorticoid receptor (Homo sapiens, UniProt P04150); experiment: Effective concentration against glucocorticoid receptor in human lung A549 cells
T4 sequence (P04150 whole entry): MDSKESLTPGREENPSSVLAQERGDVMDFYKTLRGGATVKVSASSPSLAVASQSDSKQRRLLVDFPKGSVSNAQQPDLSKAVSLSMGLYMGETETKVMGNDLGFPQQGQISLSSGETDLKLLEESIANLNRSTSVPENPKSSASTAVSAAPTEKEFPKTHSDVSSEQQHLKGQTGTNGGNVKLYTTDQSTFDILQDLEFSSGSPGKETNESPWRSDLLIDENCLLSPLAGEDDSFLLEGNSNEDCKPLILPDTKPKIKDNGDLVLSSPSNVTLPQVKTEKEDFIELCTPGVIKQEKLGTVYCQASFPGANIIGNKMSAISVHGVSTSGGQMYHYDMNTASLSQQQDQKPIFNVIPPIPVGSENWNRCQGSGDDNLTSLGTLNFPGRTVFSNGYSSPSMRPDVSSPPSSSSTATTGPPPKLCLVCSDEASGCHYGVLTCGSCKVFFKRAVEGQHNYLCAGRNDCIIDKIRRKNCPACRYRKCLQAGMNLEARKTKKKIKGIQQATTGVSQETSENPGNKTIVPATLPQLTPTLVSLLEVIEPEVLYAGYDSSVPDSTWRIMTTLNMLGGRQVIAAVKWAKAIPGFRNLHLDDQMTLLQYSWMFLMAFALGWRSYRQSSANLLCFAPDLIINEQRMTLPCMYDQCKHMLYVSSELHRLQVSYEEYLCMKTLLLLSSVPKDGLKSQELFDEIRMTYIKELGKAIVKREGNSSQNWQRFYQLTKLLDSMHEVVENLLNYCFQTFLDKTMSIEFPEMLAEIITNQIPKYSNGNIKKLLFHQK

Progesterone receptor [6] = target: T1, Progesterone receptor; experiment: Inhibition of 3 nM [3H]R5020 binding to progesterone receptor in human T47D cells; type: functional, cell-based
Androgen receptor [7] = target: T5, Androgen receptor (Mus musculus, UniProt P19091); experiment: Inhibitory activity against Androgen receptor in mouse fibroblast L929 cells; type: cell-based
T5 sequence (P19091 whole entry): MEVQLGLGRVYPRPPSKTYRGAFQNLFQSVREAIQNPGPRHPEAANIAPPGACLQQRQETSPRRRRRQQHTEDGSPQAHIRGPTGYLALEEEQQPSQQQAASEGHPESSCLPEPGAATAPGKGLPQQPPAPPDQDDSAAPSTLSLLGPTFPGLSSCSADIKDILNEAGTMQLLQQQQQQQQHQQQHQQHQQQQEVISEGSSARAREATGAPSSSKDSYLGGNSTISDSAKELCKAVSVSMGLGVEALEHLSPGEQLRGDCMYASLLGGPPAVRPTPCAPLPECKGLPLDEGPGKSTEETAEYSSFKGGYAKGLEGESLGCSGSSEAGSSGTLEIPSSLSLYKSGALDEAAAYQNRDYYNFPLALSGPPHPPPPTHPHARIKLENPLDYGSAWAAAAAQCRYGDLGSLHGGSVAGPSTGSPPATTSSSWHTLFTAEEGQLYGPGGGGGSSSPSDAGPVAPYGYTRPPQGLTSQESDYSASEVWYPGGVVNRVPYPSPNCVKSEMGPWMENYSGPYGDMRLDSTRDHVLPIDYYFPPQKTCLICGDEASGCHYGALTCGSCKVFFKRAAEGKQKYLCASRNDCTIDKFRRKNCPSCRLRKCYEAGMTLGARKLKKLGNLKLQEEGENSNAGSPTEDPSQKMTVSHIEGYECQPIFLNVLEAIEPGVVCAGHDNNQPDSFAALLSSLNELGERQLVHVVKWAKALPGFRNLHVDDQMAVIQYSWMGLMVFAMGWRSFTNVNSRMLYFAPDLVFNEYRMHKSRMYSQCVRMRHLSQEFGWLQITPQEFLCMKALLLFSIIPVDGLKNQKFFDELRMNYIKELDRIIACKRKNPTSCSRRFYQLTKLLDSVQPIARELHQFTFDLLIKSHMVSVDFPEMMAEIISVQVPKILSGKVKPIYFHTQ

Glucocorticoid receptor [8] = target: T4, Glucocorticoid receptor; experiment: Inhibitory activity against glucocorticoid receptor in human lung A549 cells
Androgen receptor [9] = target: T5, Androgen receptor; experiment: Effective concentration against Androgen receptor in mouse fibroblast L929 cells

SMILES	EC50 (Progesterone receptor [1])	further results
S=C1Nc2ccc(-c3cccc(Cl)c3)cc2C12CCCCC2	1.6 nM	
N#Cc1cc(-c2ccc3c(c2)C2(CCCCC2)C(=S)N3)cs1	0.3 nM	
SC1=Nc2ccc(-c3cccc(-c4ccccc4)c3)cc2C12CCCCC2	71.4 nM	
N#Cc1ccc(-c2ccc3c(c2)C2(CCCCC2)C(S)=N3)cc1F	14.8 nM	
CC1(C)C(=S)Nc2ccc(-c3cccc(Cl)c3)cc21	5 nM	
N#Cc1ccc(-c2ccc3c(c2)C2(CCCCC2)C(S)=N3)o1	1.9 nM	ED50 [2]: 1 mg/kg
S=C1Nc2ccc(-c3ccc(Cl)s3)cc2C12CCCCC2	1.4 nM	
CCCCc1cc(C#N)sc1-c1ccc2c(c1)C1(CCCCC1)C(S)=N2	23.5 nM	
Oc1cccc(-c2ccc3c(c2)C2(CCCCC2)C(S)=N3)c1	2.5 nM	
CCCc1cc(C#N)sc1-c1ccc2c(c1)C1(CCCCC1)C(S)=N2	7.7 nM	
N#Cc1cc(-c2ccc3c(c2)C2(CCCCC2)C(=S)N3)ccc1F	4.2 nM	
S=C1Nc2ccc(-c3ccccc3Cl)cc2C12CCCCC2	5.3 nM	
Fc1cc(F)cc(-c2ccc3c(c2)C2(CCCCC2)C(=S)N3)c1	0.8 nM	
COc1cc(F)cc(-c2ccc3c(c2)C2(CCCCC2)C(=S)N3)c1	2.6 nM	
N#Cc1ccc(-c2ccc3c(c2)C2(CCCCC2)C(=S)N3)s1	1 nM	
Fc1cccc(-c2ccc3c(c2)C2(CCCCC2)C(S)=N3)c1	1.6 nM	
Cc1cc(C#N)sc1-c1ccc2c(c1)C1(CCCCC1)C(S)=N2		ED50 [2]: 1 mg/kg
N#Cc1ccc(F)c(-c2ccc3c(c2)C2(CCCCC2)C(=S)N3)c1	1.4 nM	

SMILES	EC50 (Progesterone receptor [1])	further results
Cc1c(S)[nH]c2ccc(-c3cccc(Cl)c3)cc12	> 3000 nM	
S=C1Nc2ccc(-c3ccc(Cl)cc3)cc2C12CCCCC2	2000 nM	
N#Cc1ccc(-c2ccc3c(c2)C2(CCCCC2)C(S)=N3)s1		ED50 [2]: 0.1 mg/kg; IC50 (Progesterone receptor [3]): 0.03 mg/kg
S=C1Nc2ccc(-c3cccc(Cl)c3)cc2C12CCC2	28.7 nM	
CC(=O)O[C@]1(C(C)=O)CC[C@H]2[C@@H]3C[C@H](C)C4=CC(=O)CC[C@]4(C)[C@H]3CC[C@@]21C [MEDROXYPROGESTERONE ACETATE]		IC50 (Progesterone receptor [3]): 0.026 mg/kg
CN1C(=S)C2(CCCCC2)c2cc(-c3cccc(Cl)c3)ccc21	> 3000 nM	EC50 (Progesterone receptor [4]): > 3000 nM
N#Cc1cc(-c2ccc3c(c2)C2(CCCCC2)C(=S)N3)co1	1.9 nM	
N#Cc1cc(F)cc(-c2ccc3c(c2)C2(CCCCC2)C(S)=N3)c1	0.36 nM	EC50 (Glucocorticoid receptor [5]): > 10000 nM; IC50 (Progesterone receptor [6]): 15.9 nM; ED50 [2]: 0.1 mg/kg; IC50 (Androgen receptor [7]): > 10000 nM; IC50 (Glucocorticoid receptor [8]): 35 nM; EC50 (Androgen receptor [9]): > 10000 nM; IC50 (Progesterone receptor [3]): 0.025 mg/kg
S=C1Nc2ccc(-c3cccc(Cl)c3)cc2C12CCCC2	9.8 nM	
Fc1ccc(-c2ccc3c(c2)C2(CCCCC2)C(S)=N3)cc1F	5.4 nM	
Fc1cc(Cl)cc(-c2ccc3c(c2)C2(CCCCC2)C(=S)N3)c1	0.5 nM	
Fc1ccc(-c2ccc3c(c2)C2(CCCCC2)C(S)=N3)cc1Cl	4.3 nM	
Cc1cc(C#N)sc1-c1ccc2c(c1)C1(CCCCC1)C(=S)N2	0.5 nM	
CC1(Cc2ccccc2)C(=S)Nc2ccc(-c3cccc(Cl)c3)cc21 (stereo not drawn)	1200 nM	
SC1=Nc2ccc(-c3cccc(Cl)c3)cc2C12CCCCC2		ED50 [2]: > 3 mg/kg; IC50 (Progesterone receptor [3]): 0.37 mg/kg
N#Cc1cccc(-c2ccc3c(c2)C2(CCCCC2)C(=S)N3)c1	2 nM	ED50 [2]: 0.4 mg/kg; IC50 (Progesterone receptor [3]): 0.3 mg/kg
CCC1(CC)C(=S)Nc2ccc(-c3cccc(Cl)c3)cc21	200 nM	
